From ChEMBL document CHEMBL1629642, “In vitro efficacy of ST246 against smallpox and monkeypox” (Antimicrob Agents Chemother, 2009)
pEC50: −log10 of the molar value. The source made the active and inactive calls. The calls are words filed in the database; no cut-off is given here.

Key:
[1] = test system: Ectromelia virus; assay: Antiviral activity against Ectromelia virus infected in african green monkey Vero cells assessed as reduction in virus-induced cytopathic effect; format: functional, cell-based
[2] = test system: Monkeypox virus; assay: Antiviral activity against Monkeypox virus V81-I-179 infected in african green monkey BSC-40 cells assessed as reduction in viral plaque formation at 0.015 uM uM by IHC staining-based plaque reduction assay; format: functional
[3] = test system: Monkeypox virus; assay: Antiviral activity against Monkeypox virus 2003-USA-039 infected in african green monkey BSC-40 cells at 0.005 uM by IHC staining-based comet tail reduction assay; format: functional, organism-based
[4] = test system: Variola virus; assay: Antiviral activity against Variola virus BSH74-sol infected in african green monkey BSC-40 cells at 0.005 uM by IHC staining-based comet tail reduction assay; format: functional, organism-based
[5] = test system: Monkeypox virus; assay: Antiviral activity against Monkeypox virus V1979-I-005 infected in african green monkey BSC-40 cells at 0.05 to 0.5 uM by IHC staining-based comet tail reduction assay; format: functional, organism-based
[6] = test system: Variola virus; assay: Antiviral activity against Variola virus SUD47-juba infected in african green monkey BSC-40 cells at 0.015 uM assessed as reduction in virus-induced cytopathic effect; format: functional, organism-based
[7] = test system: Variola virus; assay: Antiviral activity against Variola virus NEP73-175 infected in african green monkey BSC-40 cells assessed as reduction in viral plaque formation at 0.015 uM uM by IHC staining-based plaque reduction assay; format: functional
[8] = test system: Variola virus; assay: Antiviral activity against Variola virus BRZ66-39 infected in african green monkey BSC-40 cells at 0.015 uM by IHC staining-based comet tail reduction assay; format: functional, organism-based
[9] = test system: Monkeypox virus; assay: Antiviral activity against Monkeypox virus V78-I-3945 infected in african green monkey BSC-40 cells assessed as reduction in virus-induced cytopathic effect at 0.005 uM; format: functional, organism-based
[10] = test system: Monkeypox virus; assay: Antiviral activity against Monkeypox virus V77-I-823 infected in african green monkey BSC-40 cells assessed as reduction in virus-induced cytopathic effect at 0.005 uM; format: functional, organism-based
[11] = test system: Variola virus; assay: microbe, parasite or virus in culture; conditions: BSH74-sol, BSC-40
[12] = test system: Variola virus; assay: Antiviral activity against Variola virus SOM77-ali infected in african green monkey BSC-40 cells at 0.05 to 0.5 uM by IHC staining-based plaque reduction assay; format: functional, organism-based
[13] = test system: Variola virus; assay: Antiviral activity against Variola virus BSH74-sol infected in african green monkey BSC-40 cells assessed as reduction in viral plaque formation at 0.015 uM uM by IHC staining-based plaque reduction assay; format: functional
[14] = test system: Variola virus; assay: Antiviral activity against Variola virus SUD47-juba infected in african green monkey BSC-40 cells at 0.015 uM by IHC staining-based comet tail reduction assay; format: functional, organism-based
[15] = test system: Variola virus; assay: Antiviral activity against Variola virus SOM77-ali infected in african green monkey BSC-40 cells at 0.015 uM assessed as reduction in virus-induced cytopathic effect; format: functional, organism-based
[16] = test system: Monkeypox virus; assay: Antiviral activity against Monkeypox virus 2003-USA-039 infected in african green monkey BSC-40 cells at 0.015 uM by IHC staining-based comet tail reduction assay; format: functional, organism-based
[17] = test system: Monkeypox virus; assay: Antiviral activity against Monkeypox virus 2003-USA-039 infected in african green monkey BSC-40 cells at 0.005 uM uM by IHC staining-based plaque reduction assay; format: functional, organism-based
[18] = test system: Monkeypox virus; assay: Antiviral activity against Monkeypox virus V1979-I-005 infected in african green monkey BSC-40 cells at 0.005 uM uM by IHC staining-based plaque reduction assay; format: functional, organism-based
[19] = test system: Variola virus; assay: Antiviral activity against Variola virus BRZ66-39 infected in african green monkey BSC-40 cells at 0.005 uM uM by IHC staining-based plaque reduction assay; format: functional, organism-based
[20] = test system: Variola virus; assay: Antiviral activity against Variola virus BRZ66-39 infected in african green monkey BSC-40 cells assessed as reduction in viral plaque formation at 0.015 uM uM by IHC staining-based plaque reduction assay; format: functional
[21] = test system: Monkeypox virus; assay: Antiviral activity against Monkeypox virus 2003-USA-039 infected in african green monkey BSC-40 cells at 0.05 to 0.5 uM by IHC staining-based comet tail reduction assay; format: functional, organism-based
[22] = test system: Monkeypox virus; assay: Antiviral activity against Monkeypox virus V81-I-179 infected in african green monkey BSC-40 cells at 0.05 to 0.5 uM by IHC staining-based plaque reduction assay; format: functional, organism-based
[23] = test system: Variola virus; assay: Antiviral activity against Variola virus SLN68-258 infected in african green monkey BSC-40 cells at 0.005 uM assessed as reduction in virus-induced cytopathic effect; format: functional, organism-based
[24] = test system: Monkeypox virus; assay: Antiviral activity against Monkeypox virus V77-I-823 infected in african green monkey BSC-40 cells at 0.05 to 0.5 uM by IHC staining-based plaque reduction assay; format: functional, organism-based
[25] = test system: Monkeypox virus; assay: Antiviral activity against Monkeypox virus V1979-I-005 infected in african green monkey BSC-40 cells assessed as reduction in virus-induced cytopathic effect at 0.005 uM; format: functional, organism-based
[26] = test system: Variola virus; assay: Antiviral activity against Variola virus NEP73-175 infected in african green monkey BSC-40 cells at 0.005 uM by IHC staining-based comet tail reduction assay; format: functional, organism-based
[27] = test system: Variola virus; assay: Antiviral activity against Variola virus BSH74-sol infected in african green monkey BSC-40 cells at 0.005 uM uM by IHC staining-based plaque reduction assay; format: functional, organism-based
[28] = test system: Variola virus; assay: Antiviral activity against Variola virus BSH74-sol infected in african green monkey BSC-40 cells at 0.015 uM assessed as reduction in virus-induced cytopathic effect; format: functional, organism-based
[29] = test system: Variola virus; assay: Antiviral activity against Variola virus SLN68-258 infected in african green monkey BSC-40 cells assessed as reduction in viral plaque formation at 0.015 uM uM by IHC staining-based plaque reduction assay; format: functional
[30] = test system: Monkeypox virus; assay: Antiviral activity against Monkeypox virus 2003-USA-039 infected in african green monkey BSC-40 cells assessed as reduction in virus-induced cytopathic effect; format: functional, organism-based; conditions: 2003-USA-039, BSC-40
[31] = test system: Variola virus; assay: Antiviral activity against Variola virus BSH74-sol infected in african green monkey BSC-40 cells at 0.05 to 0.5 uM by IHC staining-based plaque reduction assay; format: functional, organism-based
[32] = test system: Monkeypox virus; assay: Antiviral activity against Monkeypox virus V78-I-3945 infected in african green monkey BSC-40 cells assessed as reduction in virus-induced cytopathic effect; format: functional, organism-based; conditions: V78-I-3945, BSC-40
[33] = test system: Variola virus; assay: Antiviral activity against Variola virus SLN68-258 infected in african green monkey BSC-40 cells at 0.05 to 5 uM assessed as reduction in virus-induced cytopathic effect; format: functional, organism-based
[34] = test system: Variola virus; assay: Antiviral activity against Variola virus SUD47-juba infected in african green monkey BSC-40 cells at 0.005 uM by IHC staining-based comet tail reduction assay; format: functional, organism-based
[35] = test system: Monkeypox virus; assay: Antiviral activity against Monkeypox virus V78-I-3945 infected in african green monkey BSC-40 cells at 0.005 uM by IHC staining-based comet tail reduction assay; format: functional, organism-based
[36] = test system: Variola virus; assay: Antiviral activity against Variola virus SUD47-juba infected in african green monkey BSC-40 cells at 0.05 to 0.5 uM by IHC staining-based plaque reduction assay; format: functional, organism-based
[37] = test system: Monkeypox virus; assay: Antiviral activity against Monkeypox virus 2003-USA-039 infected in african green monkey BSC-40 cells at 0.05 to 0.5 uM by IHC staining-based plaque reduction assay; format: functional, organism-based

O=C(NN1C(=O)[C@@H]2[C@@H]3C=C[C@@H]([C@H]4C[C@@H]34)[C@@H]2C1=O)c1ccc(C(F)(F)F)cc1 [TECOVIRIMAT]
Activity [1]: Active | inhibition (INH) [2]: 50% | Activity [3]: inactive | Activity [4]: inactive | Activity [5]: Active | Activity [6]: Active | inhibition (INH) [7]: 50% | Activity [8]: Active | Activity [9]: inactive | Activity [10]: inactive | pEC50 [11]: 7.55 | Activity [12]: Active | inhibition (INH) [13]: 50% | Activity [14]: Active | Activity [15]: Active | Activity [16]: Active | Activity [17]: inactive | Activity [18]: inactive | Activity [19]: inactive | inhibition (INH) [20]: 50% | Activity [21]: Active | Activity [22]: Active | Activity [23]: inactive | Activity [24]: Active | Activity [25]: inactive | Activity [26]: inactive | Activity [27]: inactive | Activity [28]: Active | inhibition (INH) [29]: 50% | pEC50 [30]: 7.44 | Activity [31]: Active | pEC50 [32]: 7.64 | Activity [33]: Active | Activity [34]: inactive | Activity [35]: inactive | Activity [36]: Active | Activity [37]: Active
